Measurements taken from patent US20130253056A1, “Continuous Administration of Levodopa and/or Dopa Decarboxylase Inhibitors and Compositions for Same” (NEURODERM, LTD., priority 2009, published 2013).
Values after ≈ are worked out from the molar mass of the structure shown. Values joined by “and” are separate entries in the source; they are usually repeats but may differ in a detail not shown here. Identical values can stand only once. Counter-ions that a name gives are not always drawn. Like-named read-outs stand apart in the source and are kept apart here.

Tests used:
[1] = Solubility in PBS, flask method; type: physicochemical; details: for solubility: phosphate buffered saline (PBS), aqueous buffer, thermodynamic from solid, read-out: Solubility of LDEs in PBS
Procedure: The “flask method” was used to determine the solubility of the test material in phosphate buffered saline (PBS) according to the OECD Guidelines for the Testing of Chemicals. Briefly, the test material was dissolved in PBS at a temperature slightly above the test temperature. When saturation is achieved, the solution is cooled to the test temperature and the mass concentration of the LD alkyl ester in the solution is determined quantitatively by measuring the absorbance of the solution at 280 nm and comparing the readings to a calibration curve of the relevant alkyl ester dissolved in PBS.

[2] = for LD in Blood (ng/ml): LDiPE / LD in Blood (ng/ml): LD-d3 / Recovery from Blood (%): LD-d3: whole blood
Procedure: LDEs [isopropyl ester (LDipE), propyl ester (LDpE), ethyl ester (LDeE)] and LD-d3, were spiked into whole blood, incubated for 15 or 60 minutes at 37° C., and the plasma or whole blood concentration of LD, LD-d3 and LDipE were quantified using HPLC analysis as shown in Table 6 and FIG. 13.

[3] = Intradermal delivery of LDE in pigs; type: in vivo
Procedure: LDEs were infused intradermally for 4 hours. […] Both whole blood and plasma samples were subjected to LD and LDE analysis.

[4] = Effect of pH on stability and hydrolysis of LDipE; type: physicochemical
Procedure: FIG. 19 indicates the effect of pH on stability and hydrolysis of LDipE after 10 days at 4 and 40° C.

mice = test: Skin sensitization, LLNA (local lymph node assay); details: for Median SI / SI / Ind. SI: LLNA mice; for Ind. SI: individual animals
Procedure: Sensitization was tested in mice using a LLNA (local lymph node assay) model for the detection of skin sensitization. […] In another LLNA study, LD Propyl and Benzyl Esters were tested in vehicle containing penetration enhancers.

[5] = Continuous subcutaneous carbidopa with or without entacapone, levodopa PK in pigs; type: in vivo, female landrace×large white swine; details: continuous SC 2% carbidopa with 2.5% entacapone, oral LD/CD
Procedure: (§1) Plasma levels of L-dopa were measured by HPLC-ECD.

[6] = Continuous subcutaneous administration of LD benzyl ester-HCl in pigs; type: in vivo; details: 15% aqueous solution pH 4.7, continuous SC 2 ml/24 h, oral carbidopa q8 h
Procedure: An aqueous solution of 15% LD benzyl ester-HCl, pH 4.7, was continuously administered subcutaneously via an insulin patch pump, 2 ml/24 h. Carbidopa was administered orally q8 h, starting 1 h prior to pump application.

[7] = Oral levodopa arginine and carbidopa arginine salts, PK in pigs; type: in vivo, female landrace×large white swine; details: for absorption as compared to LD/CD (Sinemet): oral 255/45 mg LDs/CDs (corresponding to 100/25 LD/CD); for PK of plasma LD and CD: oral enteric coated LDs/CDs
Procedure: Pigs were orally administered with 255/45 mg LD-arginine salt (LDs)/CD-arginine salt (CDs) to 30-35 kg pigs in gelatin coated or non-coated capsules (corresponding to 100/25 LD/CD). Plasma levels of LD and CD were measured by HPLC-ECD.

[8] = biological target: T1, dopa-decarboxylases (DDC) (Sus scrofa, UniProt P80041); test: Inhibition of dopa-decarboxylase activity in vitro; type: biochemical; details: porcine liver homogenate
T1 construct: DDC enzymes were obtained from porcine liver homogenate; from tissue; host or cells: porcine liver homogenate
T1 sequence (P80041 1-486): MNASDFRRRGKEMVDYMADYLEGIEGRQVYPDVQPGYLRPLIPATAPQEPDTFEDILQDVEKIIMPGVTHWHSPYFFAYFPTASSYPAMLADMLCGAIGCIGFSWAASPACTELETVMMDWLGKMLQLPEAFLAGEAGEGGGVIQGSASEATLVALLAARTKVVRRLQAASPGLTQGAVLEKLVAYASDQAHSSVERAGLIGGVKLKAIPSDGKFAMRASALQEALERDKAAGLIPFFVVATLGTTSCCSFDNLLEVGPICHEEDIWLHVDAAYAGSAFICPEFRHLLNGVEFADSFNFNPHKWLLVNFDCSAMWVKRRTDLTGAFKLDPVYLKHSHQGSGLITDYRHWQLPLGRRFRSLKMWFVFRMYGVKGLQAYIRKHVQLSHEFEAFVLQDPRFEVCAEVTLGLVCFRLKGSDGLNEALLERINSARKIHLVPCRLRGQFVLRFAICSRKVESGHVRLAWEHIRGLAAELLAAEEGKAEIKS
Procedure: DDC enzymes were obtained from porcine liver homogenate and their activity was measured by comparing LD concentrations with and without carbidopa propyl ester (CDPE). Liver homogenate preparation was based on the method described by Umezawa et al; (J. Antib. 1975, 28(12):947-52).
All samples were separated on high pressure liquid chromatography columns and the identity and concentration of L-DOPA and dopamine were determined by HP UV-HPLC analysis at […].

[9] = Transdermal delivery through pig skin ex vivo, Franz cell delivery system; type: in vitro ADME, porcine; details: gel formulations, receiver samples 0, 16, 19 and 22 hours
Procedure: Gel formulations containing CDPE were prepared. Samples were collected from the receiver cell at time 0, 16, 19 and 22 hours after formulation application on to the skin. The amount of CD compounds in the receiver cell fluid was determined by a spectrophotometer at […].

[10] = Pig skin penetration of LDE by patch; type: in vivo, pigs; details: for LD P/WB (%) / Ratio C/P / LD blood cells (C) / Plasma (P) LD / Whole blood (WB) LD: 16 h after patch application; for Ratio C/P: blood cell fraction LD / plasma LD; for LD blood cells (C) / Plasma (P) LD / Whole blood (WB) LD / LD concentration in the blood cell fraction higher as compared to LDbzE: pigs; for LD concentration in the blood cell fraction higher as compared to LDbzE: patch
Procedure: Patch removal occurred at 24 h. […] Both whole blood and plasma were subjected to LD and 3-OMD analysis. […] LD formed in the RBC stay within the RBCs, and is further metabolized to 3-OMD, which is reallocated from the RBCs into the plasma.

[11] = Continuous subcutaneous benserazide, levodopa PK in pigs; type: in vivo, female landrace×large white swine; details: continuous subcutaneous benserazide with oral L-dopa/Carbidopa
Procedure: as §1

[12] = cited from earlier work
[13] = T0 after spiking into whole blood
[14] = T15′ after spiking into whole blood

SMILES: CCCCCCCCOC(=O)[C@@H](N)Cc1ccc(O)c(O)c1 [Octyl, levodopa octyl ester]
- solubility [1]: 0.031 mg/mL (≈ 0.1 mM)

SMILES: CC(C)OC(=O)[C@@H](N)Cc1ccc(O)c(O)c1 [LD Isopropyl Ester, levodopa isopropyl ester]
- Recovery from Blood (%): LDiPE ([2]; 0 min): 45%
- LD in Plasma (ng/ml): LDiPE ([2]; T0 after spiking of LDipE into whole blood): 0 ng/mL
- LD in Plasma (ng/ml): LDiPE ([2]; T15′ after spiking of LDipE into whole blood): 0 ng/mL
- LD in Blood (ng/ml): LDiPE ([2]; T0 after spiking of LDipE): 180 ng/mL
- LD in Blood (ng/ml): LDiPE ([2]; T15′ after spiking of LDipE, 37° C.): 0 ng/mL
- recovery at 15 min (in vitro): 0%
- recovery at 15 min, 400 ng/ml (in vitro): 0%
- levels of LDipE in the RBC fraction ([3]; during 4 hours intradermal infusion): Significant levels of LDipE were found in the RBC fraction
- solubility [1]: 17.3 mg/mL (≈ 72.2 mM)
- pH of the most stable formulation tested ([4]; after 10 days at 4° C.): 5.1
- pH of the most stable formulations tested ([4]; after 10 days at 40° C., listed as LDipE): 3.7 and 4.8
- Median SI (mice; 1M (24%) in DMF): 3.5
- SI (mice; 1M (24%) in DMF): 4.2
- Ind. SI (mice; 1M (24%) in DMF): 3.63 and 7.11 and 2.69 and 3.33

SMILES: [2H]c1c([2H])c(C[C@H](N)C(=O)O)c([2H])c(O)c1O [LD-d3]
- LD in Plasma (ng/ml): LD-d3 [2, 13]: 533 ng/mL
- Recovery from Plasma (%): LD-d3 [2, 13]: 67%
- LD in Plasma (ng/ml): LD-d3 [2, 14]: 573 ng/mL
- Recovery from Plasma (%): LD-d3 [2, 14]: 70% and 72%
- LD in Blood (ng/ml): LD-d3 ([2]; T0 after spiking): 289 ng/mL
- Recovery from Blood (%): LD-d3 ([2]; T0 after spiking): 72%
- Recovery from Blood (%): LD-d3 ([2]; T15′ after spiking): 72%
- LD in Blood (ng/ml): LD-d3 ([2]; T15′ after spiking, 37° C.): 288 ng/mL

SMILES: CCN(CC)C(=O)/C(C#N)=C/c1cc(O)c(O)c([N+](=O)[O-])c1 [entacapone]
- levels of 3-OMD [5]: effectively reduced
- pharmacokinetics of levodopa [5]: did not further extend

SMILES: NC(Cc1ccc(O)c(O)c1)C(=O)OCc1ccccc1 (stereo not shown) [LD benzyl ester-HCl]
- plasma concentrations of LD [6]: fluctuations of LD concentrations in the plasma coincided with oral carbidopa administration

SMILES: N=C(N)NCCCC(N)C(=O)O.NC(Cc1ccc(O)c(O)c1)C(=O)O (stereo not shown) [LDs]
- absorption as compared to LD/CD (Sinemet) [7]: absorbed more rapidly and efficiently
- PK of plasma LD and CD [7]: extended the PK of plasma LD and CD

SMILES: CCCOC(=O)C(C)(Cc1ccc(O)c(O)c1)NN (stereo not shown) [CDPE, carbidopa propyl ester]
- inhibition of decarboxylation of L-dopa to dopamine [8]: inhibits the decarboxylation of L-dopa to dopamine, in a similar manner to carbidopa and benserazide
- transdermal delivery through full thickness porcine skin [9]: penetrates the skin in an enhancer-dose dependent manner

SMILES: CCOC(=O)[C@@H](N)Cc1ccc(O)c(O)c1 [LD Ethyl Ester, levodopa ethyl ester]
- LD P/WB (%) ([10]; listed as Ethyl): 13.4%
- LD P/WB (%) ([10]; listed as ethyl): 13%
- Ratio C/P [10]: 6.5
- LD blood cells (C) [10]: 6418 ng/mL
- Plasma (P) LD [10]: 989 ng/mL
- Whole blood (WB) LD [10]: 7407 ng/mL
- LD concentration in the blood cell fraction higher as compared to LDbzE [10]: 2.5 ×
- Median SI (mice; 1M (24%) in DMF): 10.8
- SI (mice; 1M (24%) in DMF): 10.7
- Ind. SI (mice; 1M (24%) in DMF): 13.31 and 8.22 and 14.45 and 6.65

SMILES: CCCOC(=O)[C@@H](N)Cc1ccc(O)c(O)c1 [LD Propyl Ester, levodopa propyl ester]
- LD P/WB (%) ([10]; listed as Propyl): 24.7%
- LD P/WB (%) ([10]; listed as propyl): 25%
- Ratio C/P [10]: 3.0
- Ratio C/P ([10]; listed as LDpE): 3
- LD blood cells (C) [10]: 4820 ng/mL
- Plasma (P) LD [10]: 1584 ng/mL
- Whole blood (WB) LD [10]: 6404 ng/mL
- LD concentration in the blood cell fraction higher as compared to LDbzE [10]: 1.9 ×
- Solubility of LDEs in PBS [1]: 11.238 mg/mL
- Median SI (mice; 1M (24%) in DMF): 3.5
- SI (mice; 1M (24%) in DMF): 3.6
- Ind. SI (mice; 1M (24%) in DMF): 2.32 and 4.55 and 5.12 and 2.44
- Ind. SI (mice; 15% in Vehicle (penetration enhancers)): 36.42 and 7.70 and 38.60 and 3.53 and 31.68
- Median SI (mice; 15% in Vehicle): 31.7
- SI (mice; 15% in Vehicle): 23.6
- change of SI when applied using the transdermal formulation (mice; compared with DMF): significantly increased

SMILES: N[C@@H](Cc1ccc(O)c(O)c1)C(=O)OCc1ccccc1 [LD Benzyl Ester, levodopa benzyl ester]
- LD P/WB (%) [10]: 39.1%
- LD P/WB (%) ([10]; listed as LDbzE): ~40%
- LD blood cells (C) [10]: 2506 ng/mL
- Whole blood (WB) LD [10]: 4115 ng/mL
- hydrolysis to LD ([3]; intradermal infusion): hydrolyzed to LD faster than LD isopropyl ester

SMILES: Nc1ccc(N)cc1 [Positive Control, p-Phenylendiamine, reference compound]
- Median SI (mice; 1%): 9.7
- SI (mice; 1%): 10.1
- Ind. SI (mice; 1%): 8.82 and 9.33 and 12.15 and 10.00

SMILES: CC(Cc1ccc(O)c(O)c1)(NN)C(=O)O.N=C(N)NCCCC(N)C(=O)O (stereo not shown) [CDs]
- absorption as compared to LD/CD (Sinemet) [7]: absorbed more rapidly and efficiently
- PK of plasma LD and CD [7]: extended the PK of plasma LD and CD

SMILES: NC(CO)C(=O)NNCc1ccc(O)c(O)c1O (stereo not shown) [benserazide]
- pharmacokinetic profile of LD [11]: extended the pharmacokinetic profile of LD

SMILES: N[C@@H](Cc1ccc(O)c(O)c1)C(=O)O [Levodopa, L-3,4-dihydroxyphenylalanine]
- solubility in alcohol, chloroform or ether [12]: practically insoluble
- solubility in water [12]: only slightly soluble in water

SMILES: CCCCOC(=O)[C@@H](N)Cc1ccc(O)c(O)c1 [Butyl, levodopa butyl ester]
- Solubility of LDEs in PBS [1]: 8.85 mg/mL
